Assay results reported in ChEMBL document CHEMBL1147371, “Les Chimanines, Nouvelles Quinoleines Substituees en 2, Isolees d'Une Plante Bolivienne Antiparasitaire: Galipea longiflora” (1993).
Converted amounts (≈) assume the structure as drawn.

Key:
Leishmania braziliensis = assay: Antileishmanial activity against Leishmania braziliensis 2903; format: functional
Trypanosoma cruzi = assay: Antitrypanosomal activity against Trypanosoma cruzi Tulahuen; format: functional

Row | SMILES | IC90 (Leishmania braziliensis) | IC90 (Trypanosoma cruzi)
1 | CCCCCc1ccc2ccccc2n1 | 100 µg/mL (≈ 502 µM) | 100 µg/mL (≈ 502 µM)
2 | c1ccc2nc(CCc3ccc4c(c3)OCO4)ccc2c1 | 100 µg/mL (≈ 361 µM) | 100 µg/mL (≈ 361 µM)
3 | COc1cc(-c2ccccc2)nc2ccccc12 | 50 µg/mL (≈ 213 µM) | 100 µg/mL (≈ 425 µM)
4 | CCCc1ccc2ccccc2n1 | 50 µg/mL (≈ 292 µM) | 50 µg/mL (≈ 292 µM)
5 | CCCCCc1cc(OC)c2ccccc2n1 | 100 µg/mL (≈ 436 µM) | 100 µg/mL (≈ 436 µM)
6 | COc1ccc(CCc2ccc3ccccc3n2)cc1OC | 100 µg/mL (≈ 341 µM) | 100 µg/mL (≈ 341 µM)
7 | c1ccc(-c2ccc3ccccc3n2)cc1 [2-PHENYLQUINOLINE] | 100 µg/mL (≈ 487 µM) | 100 µg/mL (≈ 487 µM)
8 | O=C(Cn1ccnc1[N+](=O)[O-])NCc1ccccc1 [BENZNIDAZOLE] |  | 50 µg/mL (≈ 192 µM)

The next lines start with the values.

Row | IC90 (Leishmania braziliensis) | IC90 (Trypanosoma cruzi) | SMILES
9 | 25 µg/mL (≈ 135 µM) | 50 µg/mL (≈ 270 µM) | C[C@H]1O[C@@H]1c1ccc2ccccc2n1 (relative stereo) [CHIMANINE D]
10 | 100 µg/mL (≈ 497 µM) | 100 µg/mL (≈ 497 µM) | CCCc1cc(OC)c2ccccc2n1 [CHIMANINE A]
11 | 25 µg/mL (≈ 148 µM) | 25 µg/mL (≈ 148 µM) | C/C=C/c1ccc2ccccc2n1 [CHIMANINE B]
12 | 100 µg/mL (≈ 325 µM) | 100 µg/mL (≈ 325 µM) | COc1cc(CCc2ccc3c(c2)OCO3)nc2ccccc12 [CUSPARINE]
13 |  | 25 µg/mL (≈ 87 µM) | CC1CS(=O)(=O)CCN1/N=C/c1ccc([N+](=O)[O-])o1 (configuration not stated) [NIFURTIMOX]
14 | 1 µg/mL (≈ 2.94 µM) |  | N=C(N)c1ccc(OCCCCCOc2ccc(C(=N)N)cc2)cc1 [PENTAMIDINE]
15 | 100 µg/mL (≈ 386 µM) | 100 µg/mL (≈ 386 µM) | COc1ccc2c(OC)c3ccoc3nc2c1OC [SKIMMIANINE]
